Source: patent US10328092B2, “Methods and compositions for treatment of drug addiction” (The Royal Institution for the Advancement of Learning / …, priority 2015, dated 2019)

Tested on: D1-MSNs in the NAc core
Assay: AMPA/NMDA ratio on D1-MSNs after in vivo treatment
Design: species or system mouse
Protocol: Repeated non-contingent administration of cocaine results in lower AMPA/NMDA ratios of excitatory inputs onto the NAc specifically on the D1-MSN subtype (Kim et al., 2011; Pascoli et al., 2012). To test whether the decrease in AMPA/NMDA ratios after repeated drug administration is due to the increase in TNFα expression, the AMPA/NMDA ratio was evaluated on D1 and D2 MSNs in the NAc core following cocaine or saline administration in WT and TNFα^−/− mice. […] This is consistent with the exocytosis of AMPARs observed with direct stimulation of D1Rs on MSNs (Mangiavacchi and Wolf, 2004). […] To test the hypothesis that potentiated D1-MSNs are more sensitive to TNFα, TNFα mice were treated with a single injection of cocaine and the effect of a low level of TNFα (10 ng/ml) on AMPA/NMDA ratios was evaluated. […] This treatment had no effect on D2-MSNs (FIG. 9B). To test whether cocaine-induced TNFα signaling would occlude further TNFα synaptic depression, wildtype animals were treated with cocaine for 5 days, and then treated striatel slices ex-vivo with TNFα (100 ng/ml). The AMPA/NMDA ratio on D1-MSNs (already reduced compared to saline treated animals; FIG. 5E) was not further reduced by treatment with TNFα (FIG. 5G).
Because depotentiation of MSNs reduced cocaine-induced behavioural sensitization (Pascoli et al., 2012), it was tested whether re-activation of microglia would depress NAc synapses and suppress sensitization. To do this, monophosphoryl lipid A (MPLA), a detoxified variant of LPS, was used (Casella and Mitchell, 2008). MPLA acts as a weak TLR4 agonist that is at least 100-fold less pyrogenic than LPS (Cluff, 2010) and is used in humans as an adjuvant for several vaccine formulations. […] It was verified that MPLA activates microglia in the striatum, by injecting 10 μg MPLA IP after 10 days withdrawal from cocaine. […] This is consistent with previous observations that MPLA acts as a microglia modulator (Michaud et al., 2013). […] It was next tested if MPLA treatment would depress synaptic strength in the NAc core. After 10 days of withdrawal, animals were injected with MPLA and evaluated 24 hours later for AMPA/NMDA ratios on D1-MSNs.
240 μm thick coronal slices containing the nucleus accumbens were prepared from brains of 8-9 week-old mice (with fluorescent D1-MSNs). After a 1 h recovery period, slices were placed in a submersion-type recording chamber and perfused (1.5-2 ml/min) at 30° C. with a bicarbonate-buffered artificial CSF saturated with 95% O2/5% CO2 and containing (in mM): 119 NaCl, 2.5 KCl, 1 NaH2PO4, 1.3 MgCl2, 2.5 CaCl2, 26.2 NaHCO3, 11 glucose, and 0.05 picrotoxin. Whole-cell voltage-clamp recordings from medium spiny neurons in the nucleus accumbens core were obtained under visual control using infrared-differential interference contrast microscopy. Whole-cell electrodes (2-4 MΩ) were filled with internal solution containing the following (in mM): 120 CsMeSO3, 15 CsCl, 8 NaCl, 0.2 EGTA, 10 HEPES, 2 Mg-ATP, 0.3 Na-GTP, 10 tetraethylammonium, and 5 QX-314 [5-N-(2,6-dimethylphenylcarbamoylmethyl)triethylammonium bromide] (308-310 mOsm). pH was adjusted to 7.3 with CsOH. Cells with series resistance above 25 MΩ or a 20% change over time were excluded. Synaptic currents were evoked using stainless-steel bipolar stimulating electrodes placed 100-150 μm rostral to the recorded neurons. EPSCs were acquired with an Axopatch 200B (Molecular Devices), filtered at 2 kHz, and digitized at 10 kHz. Acquisition and analysis was performed using pCLAMP 10.2 (Molecular Devices). To calculate AMPA/NMDA ratios, evoked synaptic responses were collected at −70 mV to measure AMPAR-mediated EPSCs and at +40 mV to measure NMDAR-mediated EPSCs. Typically, 20 responses were averaged to generate an average response. The peak AMPA response was used to calculate the AMPAR component and the amplitude at 40 ms post the AMPAR peak response was used to calculate the slower NMDA component at +40 mV to calculate the AMPA/NMDA ratio.

| Molecule | AMPA/NMDA ratio in D1-MSNs vs saline treated controls (MPLA 10 μg, 24 hours after injection, after 10 days withdrawal from cocaine) | mean AMPA/NMDA ratio, D1 (TNFα−/− mice, 1 day cocaine 15 mg/kg) | mean AMPA/NMDA ratio, D1 (TNFα−/− mice, 5 days cocaine 15 mg/kg) | mean AMPA/NMDA ratio, D1 (WT mice, 1 day cocaine 15 mg/kg) | mean AMPA/NMDA ratio, D1 (WT mice, 5 days cocaine 15 mg/kg) |
| --- | --- | --- | --- | --- | --- |
| monophosphoryl lipid A [MPLA] | significantly reduced | – | – | – | – |
| COC(=O)[C@H]1[C@@H](OC(=O)c2ccccc2)C[C@@H]2CC[C@H]1N2C [cocaine] | – | 4.28±0.35 | 4.97±083 | 3.38±0.57 | 2.73±0.35 |
